Laboratory results as given in patent US12601742B2, “Methods and materials for treating endometrial cancer by assessing combinations of mutations and expression levels” (Mayo Foundation for Medical Education and Research, priority 2020, dated 2026).

What was measured:
[1] = tested on: HEC-1B cell line; test: MTT cell viability assay and synergy assessment, HEC-1B; assay type: cell-based; details: constant ratio, 72 hours; for combinatory effect of carboplatin with GSK2141795 (cell viability): simultaneous exposure
Method: (§1) HEC-1B (Type I) and ARK-2 (Type II), platinum-insensitive EC cell lines, were used in this study. Both cell lines were cultured in DMEM (Dulbecco's Modified Eagle's Medium) media containing 10% FBS, 100 μg/mL streptomycin, 100 units/mL penicillin, and 2 mM L-glutamine. Cells were maintained in incubator at 37° C. in an atmosphere containing 5% CO2. Three thousand cells/well were seeded in triplicate in 96-well plates and cells were treated with increasing concentrations of panobinostat, GSK2141795, and carboplatin for 72 hours, respectively. CellTiter 96® Aqueous One Solution Cell Proliferation Assay was performed according to the manual to assess the half maximum inhibitory concentration (IC50). Constant ratio studies were carried out to investigate the combinatory effect of carboplatin with panobinostat and GSK2141795 in both HEC-1B and ARK-2 cell lines.

[2] = tested on: ARK-2 cell line; test: MTT cell viability assay and synergy assessment, ARK-2; assay type: cell-based; details: constant ratio, 72 hours; for combinatory effect of carboplatin with GSK2141795 (cell viability): ARK-2, simultaneous exposure
Method: as §1

Cn1ncc(Cl)c1-c1cc(C(=O)N[C@H](CN)Cc2ccc(F)c(F)c2)oc1Cl [GSK2141795]
synergism: combinatory effect of carboplatin with GSK2141795 (cell viability) [1] | combinatory effect of carboplatin with GSK2141795 (cell viability) [2]

N.N.O=C([O-])C1(C(=O)[O-])CCC1.[Pt+2] [carboplatin]
synergism: combinatory effect of carboplatin with GSK2141795 (cell viability) [1] | combinatory effect of carboplatin with panobinostat (cell viability) ([1]; varying concentrations) | combinatory effect of carboplatin with GSK2141795 (cell viability) [2] | combinatory effect of carboplatin with panobinostat (cell viability) ([2]; ARK-2, varying concentrations)
